Where a name gives a salt, the structure may show the parent alone. Read-outs that look alike come from different tables or passages of the source.
Experiments:
[1] = system: procollagen I; test: ECM gene mRNA by real-time qPCR in UUO kidneys: procollagen I; type: in vivo, mice; conditions: 600 mg/kg
Procedure: (§1) Unilateral ureteral obstruction (UUO) was performed on 8 week-old wild-type male mice on a C57BL6 background. […] The kidneys were harvested at 3, 7, and 14 days after UUO.
(§2) Extracellular matrix (ECM) gene mRNA levels were measured by semiquantitative real-time PCR (qPCR) in both doses at 3, 7 and 14 days after UUO. Real-time qPCR) was performed with specific primers for collagen 1A1, collagen 3A1, fibronectin, and other profibrotic and proinflammatory genes using standard protocols. Semi-quantitative real-time qPCR data was analyzed with REST software using both GAPDH and 18S as reference genes. Reactions were run in triplicate, and mean threshold crossing cycle (Ct) values were compared. ‡P<0.05; †P<0.01.

[2] = system: TGF-β receptor 1; test: Real-time PCR of profibrotic cytokines in UUO kidneys: TGF-β receptor; type: in vivo; conditions: vs control mice; for down-regulation of TGF-β receptor mRNA levels: day 14 after UUO
Procedure: (§3) The expression patterns of pro-inflammatory and pro-fibrotic cytokines were investigated at day 7 and day 14 in total kidney homogenate by semi-quantitative real time qPCR.
(§4) UUO was performed on 8 week-old wild-type male mice on a C57BL6 background. […] The kidneys (obstructed and contralateral) were harvested at day land day 14 after UUO.
(§5) Semi-quantitative real-time PCR was performed with specific primers to TGF-β and TGF-β receptor 1 genes using iCycler (Bio-Rad) with standard protocol. […] Semi-quantitative real-time PCR data was analyzed with REST software using both GAPDH and 18S as reference genes. Each sample was performed in triplicate. (‡P<0.05, †P<0.01).

[3] = system: fibronectin; test: ECM gene mRNA by real-time qPCR in UUO kidneys: fibronectin; type: in vivo, mice; conditions: day 7 after UUO
Procedure: as §1, §2

[4] = system: α-SMA-positive myofibroblasts; test: α-SMA immunoperoxidase staining of UUO kidneys; type: in vivo, mice
Procedure: Myofibroblast activation and accumulation was examined after UUO by measuring the expression of α-smooth muscle actin (α-SMA), a marker of myofibroblast activation. Interstitial myofibroblasts are the primary matrix-producing cell in response to kidney injury. […] Cell proliferation was measured by counting BrdU positive cells using a monoclonal anti-BrdU antibody. Myofibroblast recruitment was quantified after immunoperoxidase staining using peroxidase-conjugated murine anti-human α-smooth muscle actin (α-SMA) 1A4 monoclonal antibody (Sigma).

[5] = system: procollagen III; test: ECM gene mRNA by real-time qPCR in UUO kidneys: procollagen III; type: in vivo, mice; conditions: day 7 after UUO
Procedure: as §1, §2

[6] = system: F4/80-positive interstitial macrophages; test: F4/80 confocal staining of UUO kidneys; type: in vivo, mice
Procedure: as §4, with “UUO. Macrophage accumulation was analyzed by confocal staining using F4/80 rat anti-mouse macrophage monoclonal antibody (Serotec Ltd., Oxford, UK).” for “UUO.”

[7] = system: E-cadherin; test: E-cadherin immunoblotting in UUO mice; type: in vivo; conditions: treated UUO mice
Source text: (§6) Cysteamine bitartrate, the bitartrate salt of cysteamine is known commercially as Cystagon®. […] Both doses were well-tolerated and measured serum levels of cysteamine were appropriate.

[8] = system: TGF-β; test: Real-time PCR of profibrotic cytokines in UUO kidneys: TGF-β; type: in vivo; conditions: vs control mice; for down-regulation of TGF-β mRNA levels: day 14 after UUO
Procedure: as §3, §4, §5

[9] = system: UUO kidneys; test: Total kidney collagen (hydroxyproline) in UUO kidneys; type: in vivo, mice; conditions: for reduction of total kidney collagen content: day 14 after UUO
Procedure: as §6
Unilateral ureteral obstruction (UUO) was performed on 8 week-old wild-type male mice on a C57BL6 background. […] Groups of mice (n=8-10 mice per group at each time-point) were studied 3, 7, 14, and 21 days after the onset of chronic injury induced by UUO.
Total collagen was measured as hydroxyproline concentration in hydrolysates extracted from frozen normal (unobstructed) and UUO kidney samples. […] Collagen reduction was confirmed by sirius red staining

[10] = system: IL-1β, TNF-α, IL-6, Gal-3, and Endo180; test: Real-time qPCR of pro-inflammatory and pro-fibrotic cytokines in UUO kidneys; type: in vivo; conditions: day 14 after UUO, vs control mice
Procedure: as §3, §4

[11] = system: unilateral ureteral obstruction (UUO) kidneys; conditions: for severity of fibrosis as measured by total collagen content: day 14 after UUO
Procedure: Mice were sacrificed at day 14 after UUO and total renal collagen levels (μg hydroxyproline/mg) were measured. Total collagen in the tissue was calculated on the assumption that collagen contains 12.7% hydroxyproline by weight.

[12] = Plasma cysteamine levels by mass spectrometry; type: in vivo, mice; conditions: for plasma levels of cysteamine at the time of sacrifice: day 14 after UUO
Procedure: Plasma cysteamine levels were measured by mass spectrometry by the reference laboratory at UC San Diego that also runs most of the human samples for the North American patients with cystinosis.
Plasma levels were taken every hour during the evening (for 12 hours) and every four hours during the day (n=4/group).

[13] = system: unilateral ureteral obstruction (UUO) kidneys; test: IP cysteamine HCL dose trial in UUO mice; type: in vivo
Procedure: Unilateral ureteral obstruction (UUO) was performed on ten mice.

[14] = system: Nox2, Nox4, and SOD1; test: Real-time qPCR of oxidant and anti-oxidant genes in UUO mice; type: in vivo; conditions: day 7 and day 14, qPCR (data not shown)
Source text: In addition, there was no difference between cysteamine-treated and control mice in the modulation of the expression of the oxidant and anti-oxidant genes Nox2, Nox4, and SOD1 as determined by semi-quantitative real time qPCR at day 7 and day 14 (data not shown).

[15] = system: total kidney thiol content; test: Total kidney thiol content in UUO mice; type: in vivo
Procedure: In order to investigate the importance of total redox status during fibrotic injury, total kidney thiol content was measured as an indicator of antioxidant status.
UUO was performed on 8 week-old wild-type male mice on a C57BL6 background (n=5/group). […] The kidneys (obstructed and contralateral) were harvested at days 7, 14 and 21 after UUO. Tissue from contralateral and UUO kidneys was processed in antioxidant buffer and analyzed for total thiol content fluorometrically and normalized to protein content using a Measure-iT™ Thiol Assay Kit (Invitrogen).

[16] = delivery to the small intestine; cited from earlier work
[17] = target: T1, TGase (Homo sapiens, UniProt P21980); conditions: in vitro, Jeon et al. 2004; cited from earlier work
T1 sequence (P21980 1-687): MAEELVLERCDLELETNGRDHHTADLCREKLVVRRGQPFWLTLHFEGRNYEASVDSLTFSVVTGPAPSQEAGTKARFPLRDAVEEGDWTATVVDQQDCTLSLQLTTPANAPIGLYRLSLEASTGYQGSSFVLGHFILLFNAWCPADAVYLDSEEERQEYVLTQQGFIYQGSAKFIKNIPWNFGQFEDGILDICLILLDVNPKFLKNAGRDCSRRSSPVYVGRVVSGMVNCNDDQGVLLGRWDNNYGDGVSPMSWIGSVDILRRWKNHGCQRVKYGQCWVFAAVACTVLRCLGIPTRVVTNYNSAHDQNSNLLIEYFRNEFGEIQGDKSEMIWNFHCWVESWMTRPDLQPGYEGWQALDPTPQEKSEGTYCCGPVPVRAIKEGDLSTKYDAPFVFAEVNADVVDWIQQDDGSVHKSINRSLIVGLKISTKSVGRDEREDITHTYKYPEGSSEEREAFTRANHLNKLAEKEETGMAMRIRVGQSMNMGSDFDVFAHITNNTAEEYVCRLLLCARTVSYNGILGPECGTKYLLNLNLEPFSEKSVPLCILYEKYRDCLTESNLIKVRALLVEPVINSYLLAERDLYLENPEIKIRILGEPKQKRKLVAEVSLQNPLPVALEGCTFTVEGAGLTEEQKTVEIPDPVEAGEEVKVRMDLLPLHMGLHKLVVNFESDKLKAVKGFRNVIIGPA

[18] = system: Transglutaminase 2 (TGase2); test: TGase2 protein expression in UUO kidneys; type: in vivo, mice; conditions: 400 mg/kg or 600 mg/kg
Source text: Transglutaminases (TGases) are a family of enzymes that catalyze the transamidation reaction between the γ-carboxyamide of a peptide-bound glutamine residue and the ϵ-amino group of a peptide-bound lysine residue or the primary amine group of a polyamine via forming a thioester acylenzyme intermediate at the active site cysteine. Thus, TGase activity produces cross-linked proteins or amine conjugates. One type of TGase, TGase2, acts to cross link ECM proteins, particularly Collagen III. Cross linking renders proteins resistant to degradation, which is thought to result in accelerated matrix deposition.

[19] = system: intracellular cystine (circulating white blood cells); conditions: cited from earlier work
[20] = high doses (600 mg/kg), day 7 after UUO

For `NCCS.O=C(O)C(O)C(O)C(=O)O` (centres unmarked) [cysteamine bitartrate], the “reduction in procollagen I mRNA levels” value ([1]; day 7 after UUO) was about 60%, the “procollagen I mRNA levels lower” value ([1]; day 14 after UUO) was 56% and the “down-regulation of TGF-β receptor mRNA levels” value ([2]; 400 mg/kg) was 47%. The “down-regulation of TGF-β receptor mRNA levels” value ([2]; 600 mg/kg) was 64%, the “up-regulation of TGF-β receptor expression” value [2, 20] was “approximately 60%” and the “reduction in kidney fibronectin mRNA levels” value ([3]; 400 mg/kg) was about 40%. The “reduction in fibronectin mRNA levels” value ([3]; 600 mg/kg) was about 60%, the “reduction in α-SMA-positive myofibroblasts” value ([4]; 400 mg/kg, day 14 after UUO) was about 30% and the “reduction in α-SMA-positive myofibroblasts” value ([4]; 600 mg/kg, day 14 after UUO) was about 30%. The “reduction in procollagen III mRNA levels” value ([5]; 400 mg/kg) was about 40%, the “reduction in procollagen III mRNA levels” value ([5]; 600 mg/kg) was about 60% and the “reduction in interstitial macrophage infiltration” value ([6]; 600 mg/kg/day, day 14 after UUO) was 34%. The “interstitial macrophage infiltration, treated vs control” value ([6]; day 7 after UUO) was “No difference”, the “increase of E-cadherin levels (marker of tubular damage)” value [7] was 1.3 fold and the “down-regulation of TGF-β mRNA levels” value ([8]; 400 mg/kg) was 47%. For the same compound, the “down-regulation of TGF-β mRNA levels” value ([8]; 600 mg/kg) was 64%, the “up-regulation of TGF-β expression” value [8, 20] was “approximately 60%” and the tolerability ([9]; 400 mg/kg/day and 600 mg/kg/day, UUO mice) was “well-tolerated”. The “reduction of total kidney collagen content” value ([9]; 400 mg/kg/day in drinking water, vs untreated) was 21%, the “reduction of total kidney collagen content” value ([9]; 600 mg/kg/day in drinking water, vs untreated) was 21% and the “decrease in collagen levels” value ([9]; 600 mg/kg/day in drinking water, day 21 after UUO, vs untreated) was 25%. For the same compound, the “collagen reduction by sirius red staining” value ([9]; UUO kidneys) was “confirmed”, the kidney collagen levels ([9]; both doses, 400 and 600 mg/kg/day, by day 14, P<0.01) was “statistically significant reductions” and the “total collagen, treated vs control” value ([9]; day 7 after UUO) was “no difference”. The “expression levels of IL-1β, TNF-α, IL-6, Gal-3, and Endo180” value [10] was “No difference”, the “severity of fibrosis as measured by total collagen content” value ([11]; 400 mg/kg in drinking water) was “attenuated” and the “severity of fibrosis as measured by total collagen content” value ([11]; 600 mg/kg in drinking water) was “attenuated”. The “deaths or abnormal behavior” value ([11]; 200, 400, 600 mg/kg in drinking water, 14 days, even at high doses) was “No deaths or abnormal behavior was observed”, the “plasma levels of cysteamine at the time of sacrifice” value ([12]; 400 mg/kg in drinking water) was 0.81±0.091 Ilmole/L and the “plasma levels of cysteamine at the time of sacrifice” value ([12]; 600 mg/kg in drinking water) was 1.04±0.151 Ilmole/L. For the same compound, the “serum levels of cysteamine, night vs day” value ([12]; C57BL/6 mice, 600 mg/kg in drinking water for 3 days) was “higher serum levels of cysteamine are achieved at night and lower levels during the day”.
Work on `NCCS` [cysteamine bitartrate] yielded a Cmax ([12]; read-out: Cmax levels of cysteamine, C57BL/6 mice, 600 mg/kg in drinking water for 3 days) of 15 to 20 µM.
For `NCCS` [cysteamine HCL], the “total renal collagen levels (hydroxyproline)” value ([13]; 400 mg/kg dose group, daily IP, day 14 after UUO, compared to placebo (PBS)) was “decreased total collagen levels”, the deaths ([13]; IP, high dose levels) was “several mice died” and the adverse signs observed ([13]; mouse, in vivo, ip) was “Possible seizures and somnolence”.
In the case of `NCCS` [cysteamine, β-mercaptoethylamine], the “expression of oxidant and anti-oxidant genes Nox2, Nox4, and SOD1, treated vs control” value [14] is reported as “no difference”, the “total kidney thiol content in UUO kidney” value ([15]; 400 mg/kg or 600 mg/kg, day 7 after UUO) is reported as “remained at levels close to that of the contralateral kidney” and the “increase of total kidney thiol content” value ([15]; high dose (600 mg/kg), compared to controls) is reported as 36%. The Cmax [16] was “increases Cmax”, the “area under the curve (AUC)” value [16] was “increases area under the curve (AUC)” and the “time to decrease in leukocyte cystine” value [16] was “within an hour”. For the same compound, the TGase inhibition [17] was “less potent inhibitor of TGase than both cystamine and primary amines”, the “reduction in α-SMA-positive myofibroblasts” value ([4]; 400 mg/kg, day 7 after UUO) was 38% and the “reduction in α-SMA-positive myofibroblasts” value ([4]; 400 mg/kg, day 14 after UUO) was 24%. The “reduction in α-SMA-positive myofibroblasts” value ([4]; 600 mg/kg, day 7 after UUO) was 47%, the “reduction in α-SMA-positive myofibroblasts” value ([4]; 600 mg/kg, day 14 after UUO) was 33% and the “TGase2 protein expression in UUO kidneys” value [18] was “no difference in TGase2 protein expression”. The “lowering of leukocyte cystine levels” value ([19]; children with cystinosis, enteral administration (Dohil et al.)) was “prolonged efficacy in the lowering of leukocyte cystine levels”, the “progression to kidney failure/transplantation” value ([19]; subjects with cystinosis, taken regularly) was “reduce the rate of progression to kidney failure/transplantation” and the “depletion of intracellular cystine” value ([19]; taken regularly, measured in circulating white blood cells) was “up to 90%”.
